Data published in paper PMC10569896, “Molecular Investigation of the Antitumor Effects of Monoamine Oxidase Inhibitors in Breast Cancer Cells” (BioMed Research International, 2023).

Tests used:
MDA-MB-231 = test: cells; set-up: MTT cell viability assay, antiproliferative IC50 in MDA-MB-231 breast cancer cells; conditions: Homo sapiens, MDA-MB-231, 48 h
Method: (§1) To assess the effect of MAO-AIs on the survival and proliferation of breast cancer cells, MTT colorimetric analysis was performed as previously described. MDA-MB-231 and T47D cells were seeded into a 96-well plate, at a different seeding density per well depending on proliferation ability, doubling time, and target time of treatment. Then, cells were maintained at 37°C in a humidified 5% CO2 atmosphere. Cell viability was calculated as follows: cell viability (%) = [(optical density of viable cells in the test group)/optical density of viable cells in the negative control group] × 100%. Experiments were run at least 2-3 times independently. […] The ratio of IC50 for each drug alone guided the selection of an appropriate combination ratio. As described earlier, the MTT test was used to determine cell viability after treatment time elapsed (48 hours). CompuSyn software (ComboSyn Inc., Paramus, NJ, USA) was used to determine the combination index (CI), which is based on Chou-Talalay's combination index theorem, and its formula is the sum of the ratio of the dose of each drug in the compound to the dose when used alone when the combination and compound produce 50% efficacy. CI values < 1, =1, and > 1 indicate synergism, additive, and antagonistic effects, respectively, as shown in Equation (1). In this study, MTT assay was performed after exposing MDA-MB-231 and T-47d cell lines to increasing concentrations of MAO-A inhibitors for either 24, 48, or 72 h. […] Breast cancer cell lines, T-47D and MDA-MB-231 cells, were purchased from American Type Culture Collection (ATCC, USA). Cells were cultured in DMEM high glucose culture medium supplemented with 10% fetal bovine serum (FBS), 2 mM L-glutamine, 100 U/mL penicillin, and 0.1 mg/mL streptomycin. Cells were maintained in a humidified controlled temperature incubator set at 37°C, 95% humidity, and 5% CO2.

T-47D = test: cells; set-up: MTT cell viability assay, antiproliferative IC50 in T-47D breast cancer cells; conditions: Homo sapiens, T47D, 48 h
Method: as §1

Row | IC50 (MDA-MB-231) | IC50 (T-47D) | SMILES
1 | 2 µM | 2.2 µM | COc1cccc2c1C(=O)c1c(O)c3c(c(O)c1C2=O)C[C@@](O)(C(=O)CO)C[C@@H]3O[C@H]1C[C@H](N)[C@H](O)[C@H](C)O1 [Doxorubicin]
2 | 163 µM | 157 µM | C#CCN(C)CCCOc1ccc(Cl)cc1Cl [J19, clorgyline]
3 | 27 µM | 28 µM | O=C(c1ccc(OCCN2CCCCC2)cc1)c1c(-c2ccc(O)cc2)sc2cc(O)ccc12 [Raloxifene]
